Measured values reported in BindingDB's records for doi:10.1021/jm2005089 (National Human Genome Research Institute, 2011).

Biological target: T1, Polyunsaturated fatty acid lipoxygenase ALOX12 (Homo sapiens, UniProt P18054)
T1 sequence (P18054 whole entry): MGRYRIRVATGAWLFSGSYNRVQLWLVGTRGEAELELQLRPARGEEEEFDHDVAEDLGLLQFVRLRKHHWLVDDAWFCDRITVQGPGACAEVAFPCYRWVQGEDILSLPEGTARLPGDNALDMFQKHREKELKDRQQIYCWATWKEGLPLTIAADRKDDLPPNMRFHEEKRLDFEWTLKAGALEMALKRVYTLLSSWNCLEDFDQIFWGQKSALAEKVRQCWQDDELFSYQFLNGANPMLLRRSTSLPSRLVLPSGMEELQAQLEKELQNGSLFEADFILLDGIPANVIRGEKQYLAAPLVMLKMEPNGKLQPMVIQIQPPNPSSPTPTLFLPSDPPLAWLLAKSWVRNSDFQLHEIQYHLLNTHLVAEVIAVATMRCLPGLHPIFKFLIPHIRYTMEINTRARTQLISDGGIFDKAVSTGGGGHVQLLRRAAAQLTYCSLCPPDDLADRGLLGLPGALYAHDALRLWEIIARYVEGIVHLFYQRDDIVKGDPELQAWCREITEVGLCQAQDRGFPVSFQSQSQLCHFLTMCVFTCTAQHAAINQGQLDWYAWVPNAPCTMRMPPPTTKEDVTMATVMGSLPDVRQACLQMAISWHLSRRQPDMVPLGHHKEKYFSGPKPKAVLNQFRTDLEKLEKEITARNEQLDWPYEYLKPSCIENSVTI
Assay: Competitive inhibition of human platelet-type N-terminally His6-tagged 12-lipoxygenase assessed as 12-HPETE formation using arachidonic acid by Michaelis-Menten equation analysis

CC(=O)NC(c1cccs1)c1cc(Cl)c2cccnc2c1O (stereo unspecified)
Ki: 700 nM
